We go through 18 molecules from patent publication US20100227887A1 (priority 2009, published 2010).

The target of data set [1] is T1, human mGlu 5a receptor (Homo sapiens, UniProt P41594).
T1 construct: expressed in transfected cells; host or cells: EBNA cells (transient transfection); cell membrane homogenates
The data set is described as follows: [3H]MPEP competition binding on membranes of EBNA cells transfected with human mGlu 5a receptor. Conditions: [3H]MPEP (2 nM) competition, 1 h at 4° C., EBNA cell membranes. As for the experimental part:
The pharmacological activity of the compounds was tested using the following method: For binding experiments, cDNA encoding human mGlu 5a receptor was transiently transfected into EBNA cells using a procedure described by Schlaeger and Christensen [Cytotechnology 15:1-13 (1998)]. Cell membrane homogenates were stored at −80° C. until the day of assay where upon they were thawed and resuspended and polytronised in 15 mM Tris-HCl, 120 mM NaCl, 100 mM KCl, 25 mM CaCl2, 25 mM MgCl2 binding buffer at pH 7.4 to a final assay concentration of 20 μg protein/well.
Saturation isotherms were determined by addition of twelve [^3H]MPEP concentrations (0.04-100 nM) to these membranes (in a total volume of 200 μl) for 1 h at 4° C. Competition experiments were performed with a fixed concentration of [^3H]MPEP (2 nM) and IC50 values of test compounds evaluated using 11 concentrations (0.3-10,000 nM). Incubations were performed for 1 h at 4° C.
At the end of the incubation, membranes were filtered onto unifilter (96-well white microplate with bonded GF/C filter preincubated 1 h in 0.1% PEI in wash buffer, Packard Bio-Science, Meriden, Conn.) with a Filtermate 96 harvester (Packard BioScience) and washed 3 times with cold 50 mM Tris-HCl, pH 7.4 buffer. Nonspecific binding was measured in the presence of 10 μM MPEP. The radioactivity on the filter was counted (3 min) on a Packard Top-count microplate scintillation counter with quenching correction after addition of 45 μl of microscint 40 (Canberra Packard S. A., Zürich, Switzerland) and shaking for 20 min.
For binding experiments the Ki values of the compounds tested are given. The Ki value is defined by the following formula: […]
in which the IC50 values are those concentrations of the compounds tested which cause 50% inhibition of the competing radioligand ([^3H]MPEP). L is the concentration of radioligand used in the binding experiment and the Kd value of the radioligand is empirically determined for each batch of membranes prepared.

T1 sequence (P41594 21-1180 isoform P41594-2 limits assumed): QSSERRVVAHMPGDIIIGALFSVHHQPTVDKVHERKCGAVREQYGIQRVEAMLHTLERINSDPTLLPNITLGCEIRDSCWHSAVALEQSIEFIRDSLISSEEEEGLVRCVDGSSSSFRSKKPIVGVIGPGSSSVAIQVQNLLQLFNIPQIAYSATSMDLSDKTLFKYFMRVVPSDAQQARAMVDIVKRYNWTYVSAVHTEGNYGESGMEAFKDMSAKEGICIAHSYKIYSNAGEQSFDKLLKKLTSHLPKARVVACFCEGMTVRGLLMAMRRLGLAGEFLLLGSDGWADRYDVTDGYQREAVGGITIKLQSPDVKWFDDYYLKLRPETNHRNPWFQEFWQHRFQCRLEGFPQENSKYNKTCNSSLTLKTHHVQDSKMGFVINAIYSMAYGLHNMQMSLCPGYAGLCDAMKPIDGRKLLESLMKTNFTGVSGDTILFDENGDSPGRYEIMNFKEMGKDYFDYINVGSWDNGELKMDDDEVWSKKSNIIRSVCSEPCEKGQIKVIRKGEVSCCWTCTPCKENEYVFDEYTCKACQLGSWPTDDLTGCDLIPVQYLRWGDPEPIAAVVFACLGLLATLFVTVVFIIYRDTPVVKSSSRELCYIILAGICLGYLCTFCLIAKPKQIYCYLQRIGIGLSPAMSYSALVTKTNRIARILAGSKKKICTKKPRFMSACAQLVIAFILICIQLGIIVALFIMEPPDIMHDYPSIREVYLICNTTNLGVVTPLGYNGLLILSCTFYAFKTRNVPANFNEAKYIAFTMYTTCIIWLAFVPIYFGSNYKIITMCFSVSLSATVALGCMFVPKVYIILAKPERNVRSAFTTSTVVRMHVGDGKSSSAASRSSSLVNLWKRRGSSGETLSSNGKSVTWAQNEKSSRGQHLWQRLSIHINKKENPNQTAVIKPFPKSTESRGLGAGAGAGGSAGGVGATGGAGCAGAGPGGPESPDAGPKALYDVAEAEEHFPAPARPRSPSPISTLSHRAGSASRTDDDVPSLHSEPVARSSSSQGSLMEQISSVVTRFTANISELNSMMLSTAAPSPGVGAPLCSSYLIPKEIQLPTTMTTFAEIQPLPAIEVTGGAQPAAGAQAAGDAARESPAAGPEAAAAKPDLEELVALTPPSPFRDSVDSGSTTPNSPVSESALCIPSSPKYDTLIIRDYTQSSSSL

As to `CCc1cc(C#N)cc(C(=O)Nc2ccc(F)cn2)n1` [Example 25, 4-Cyano-6-ethyl-pyridine-2-carboxylic acid (5-fluoro-pyridin-2-yl)-amide], the melting point stood at 183.5 °C. Also, in data set [1], the Ki was 11 nM.

On to `Cc1cc(Br)cc(C(=O)Nc2ccc(F)cn2)n1` [Example 8, 4-Bromo-6-methyl-pyridine-2-carboxylic acid (5-fluoro-pyridin-2-yl)-amide], for which the melting point stood at 160 °C. Besides, the inhibition constant Ki in data set [1] is 37 nM.

The molecule `Cc1cc(Cl)cc(C(=O)Nc2nc(C)cs2)n1` [Example 20, 4-Chloro-6-methyl-pyridine-2-carboxylic acid (4-methyl-thiazol-2-yl)-amide] had a melting point of 176 °C. Further, the Ki in data set [1] was 14 nM.

`Cc1cc(Cl)cc(C(=O)Nc2cccc(Cl)c2)n1` [Example 37, 4-Chloro-6-methyl-pyridine-2-carboxylic acid (3-chloro-phenyl)-amide] yielded a melting point of 174 °C. Besides, the Ki in data set [1] amounted to 55 nM.

`Cc1cc(C#N)cc(C(=O)Nc2ccc(F)c(C)n2)n1` [Example 11] gave a melting point of 222 °C. The Ki in data set [1] was 57 nM.

On to `Cc1cc(C#N)cc(C(=O)Nc2ccc(F)c(C)c2)n1` [Example 49, 4-Cyano-6-methyl-pyridine-2-carboxylic acid (4-fluoro-3-methyl-phenyl)-amide], for which the melting point was 177 °C. The Ki in data set [1] was found to be 72 nM.

Molecule `Cc1ccc(NC(=O)c2cc(Cl)cc(C)n2)nc1` [Example 19, 4-Chloro-6-methyl-pyridine-2-carboxylic acid (5-methyl-pyridin-2-yl)-amide] had a melting point of 159 °C. Further, the Ki in data set [1] was 109 nM.

Consider `Cc1cc(C#N)c(C)c(C(=O)Nc2ccn(C)n2)n1` [Example 12, 4-Cyano-3,6-dimethyl-pyridine-2-carboxylic acid (1-methyl-1H-pyrazol-3-yl)-amide], for which the melting point was 180.5 °C. In addition, in data set [1], the Ki came out at 143 nM.

As for `Cc1cc(C#N)cc(C(=O)Nc2ccc(F)c(Cl)c2)n1` [Example 38, 4-Cyano-6-methyl-pyridine-2-carboxylic acid (3-chloro-4-fluoro-phenyl)-amide], the melting point stood at 204 °C. For the same molecule, in data set [1], the inhibitory constant (Ki) came to 27 nM.

The molecule `Cc1cc(C#N)cc(C(=O)Nc2cccc(Cl)c2)n1` [Example 26, 4-Cyano-6-methyl-pyridine-2-carboxylic acid (3-chloro-phenyl)-amide] gave a melting point of 147.5 °C. The Ki in data set [1] turned out to be 6 nM.

`N#Cc1cc(CO)nc(C(=O)Nc2ccc(F)cn2)c1` [Example 46, 4-Cyano-6-hydroxymethyl-pyridine-2-carboxylic acid (5-fluoro-pyridin-2-yl)-amide] returned a melting point of 232.5 °C. The Ki in data set [1] came out at 111 nM.

Regarding `Cc1cc(Cl)cc(C(=O)Nc2cccc(Cl)n2)n1` [Example 35, 4-Chloro-6-methyl-pyridine-2-carboxylic acid (6-chloro-pyridin-2-yl)-amide], the melting point turned out to be 176 °C. For the same molecule, the Ki in data set [1] amounted to 34 nM.

As to `Cc1cccc(NC(=O)c2cc(C#N)cc(C)n2)c1` [Example 43, 4-Cyano-6-methyl-pyridine-2-carboxylic acid m-tolylamide], the melting point came out at 160 °C. For the same molecule, the Ki in data set [1] is 9 nM.

`N#Cc1cc(C(=O)Nc2ccc(F)cn2)nc(C(F)(F)F)c1` [Example 16, 4-Cyano-6-trifluoromethyl-pyridine-2-carboxylic acid (5-fluoro-pyridin-2-yl)-amide] returned a melting point of 186.5 °C. Besides, in data set [1], the Ki turned out to be 139 nM.

With `Cc1csc(NC(=O)c2nc(C)cc(C#N)c2C)n1` [Example 30, 4-Cyano-3,6-dimethyl-pyridine-2-carboxylic acid (4-methyl-thiazol-2-yl)-amide], the melting point was determined as 199.5 °C. Besides, in data set [1], the Ki was found to be 37 nM.

The molecule `Cc1cc(C#N)cc(C(=O)Nc2nc(C)cs2)n1` [Example 3, 4-Cyano-6-methyl-pyridine-2-carboxylic acid (4-methyl-thiazol-2-yl)-amide] returned a melting point of 211 °C. Further, the inhibition constant Ki in data set [1] was 15 nM.

Turning to `Cc1cccc(NC(=O)c2cc(Cl)cc(C)n2)n1` [Example 36, 4-Chloro-6-methyl-pyridine-2-carboxylic acid (6-methyl-pyridin-2-yl)-amide], the melting point amounted to 130.5 °C. In addition, the Ki in data set [1] was determined as 15 nM.

`Cc1cc(C#N)cc(C(=O)Nc2ccn(C)n2)n1` [Example 1, 4-Cyano-6-methyl-pyridine-2-carboxylic acid (1-methyl-1H-pyrazol-3-yl)-amide] registered a melting point of 201 °C. Moreover, in data set [1], the Ki came to 38 nM.

By melting point is commonly meant the temperature, or range, at which the solid turns liquid. By Ki is commonly meant the dissociation constant of the complex between target and ligand, obtained from inhibition or displacement.
